Measurements reported in DBAASP.
≈ marks a conversion by molar mass, not a printed value.

Key:
Assay in all cases: ≥ marks a high value that may be exact or a test limit, other limits are often not marked, values filed in µg/mL are converted to µM
[1] = system: Bacillus subtilis ATCC 6633
[2] = system: Staphylococcus aureus ATCC 25923
[3] = system: Escherichia coli ATCC 25922
[4] = system: Candida albicans ATCC 20032
Escherichia coli W160-37 = system: Escherichia coli W160-37
[5] = system: Escherichia coli DH5alpha
[6] = system: Bacillus subtilis ATCC 23857
[7] = system: Pseudomonas aeruginosa ATCC 27853
Bacillus subtilis 168 = system: Bacillus subtilis 168
[8] = system: Acinetobacter baumannii ATCC 19606
[9] = system: Klebsiella pneumoniae ATCC 700603
Saccharomyces cerevisiae = system: Saccharomyces cerevisiae
[10] = system: Pseudomonas aeruginosa ATCC 15692
Micrococcus luteus = system: Micrococcus luteus
[11] = system: Staphylococcus aureus NCTC 8325
Staphylococcus aureus = system: Staphylococcus aureus
[12] = system: Xanthomonas arboricola pv. pruni CFBP 5563
[13] = system: Pseudomonas syringae pv. actinidiae Psa3700.1.1
[14] = system: Pseudomonas syringae pv. syringae EPS 94
[15] = system: Xanthomonas campestris pv. Vesicatoria 2133-2
[16] = system: Erwinia amylovora PMV 6076
[17] = system: Xanthomonas fragariae Xf349-9A

MIC [1] [µM] | MIC [2] [µM] | MIC [3] [µM] | MIC [4] [µM] | MIC (Escherichia coli W160-37) [µM] | Compound | other results
29.8 (≈ 135 µg/mL) | 14.4 (≈ 64.9 µg/mL) | 35.3 (≈ 160 µg/mL) | ≥ 44.2 | – | CC(C)C[C@@H]1NC(=O)[C@H](CO)NC(=O)[C@H](Cc2ccc(O)cc2)NC(=O)[C@H](CCC(=O)O)NC(=O)[C@H](Cc2ccccc2)NC(=O)[C@H](C)NC(=O)[C@H](Cc2ccccc2)NC(=O)[C@@H]2CSSC[C@@H](C(=O)N[C@H](C(=O)N3CCC[C@H]3C(=O)N[C@@H](CC(N)=O)C(=O)N[C@H](C(=O)N[C@@H](Cc3ccccc3)C(=O)O)[C@@H](C)O)C(C)C)NC(=O)[C@@H]3CSSC[C@H](NC(=O)CNC(=O)[C@H](Cc4c[nH]c5ccccc45)NC(=O)[C@@H](NC(=O)[C@H](C)NC(=O)[C@@H](N)Cc4ccccc4)C(C)C)C(=O)N[C@@H](C)C(=O)N[C@@H](CC(=O)O)C(=O)N[C@@H](Cc4ccc(O)cc4)C(=O)N[C@@H](CCCN=C(N)N)C(=O)NCC(=O)N[C@@H](Cc4ccc(O)cc4)C(=O)N[C@@H](CSSC[C@H](NC(=O)CNC(=O)[C@H](CCCCN)NC(=O)[C@@H]4CCCN4C(=O)CNC1=O)C(=O)N[C@@H]([C@@H](C)O)C(=O)N[C@@H](CCC(=O)O)C(=O)NCC(=O)N[C@@H](Cc1ccc(O)cc1)C(=O)N[C@@H](C(C)C)C(=O)N3)C(=O)N[C@@H](CCCN=C(N)N)C(=O)N[C@@H](C)C(=O)N[C@@H](C)C(=O)N2 [FAVWGCADYRGYCRAACFAFEYSLGPKGCTEGYVCCVPNTF] | –
– | – | – | – | ≥ 40.8 | CC[C@H](C)[C@H](NC(=O)[C@H](CC(C)C)NC(=O)[C@H](C)NC(=O)[C@H](CC(C)C)NC(=O)[C@@H](N)Cc1ccccc1)C(=O)N[C@@H](CC(C)C)C(=O)N[C@@H](CCCN=C(N)N)C(=O)N[C@@H](CCCCN)C(=O)N[C@H](C(=O)N[C@H](C(=O)N[C@H](C(=O)N[C@@H](C)C(=O)N[C@@H](CC(C)C)C(N)=O)[C@@H](C)O)C(C)C)[C@@H](C)CC [FLALILRKIVTAL] | –
14.4 (≈ 37.5 µg/mL) | 1.8 (≈ 4.7 µg/mL) | > 38.3 | 14.4 (≈ 37.5 µg/mL) | – | CC[C@H](C)[C@H](NC(=O)CN)C(=O)NCC(=O)NCC(=O)N[C@@H](C)C(=O)N[C@@H](CC(C)C)C(=O)N[C@@H](CC(C)C)C(=O)N[C@@H](CO)C(=O)N[C@H](C(=O)NCC(=O)N[C@@H](CCCCN)C(=O)N[C@@H](CC(C)C)C(=O)N[C@@H](C)C(=O)N[C@@H](CC(C)C)C(=O)N[C@@H](CCCCN)C(=O)NCC(=O)N[C@@H](CC(C)C)C(=O)N[C@@H](C)C(=O)N[C@@H](CC(N)=O)C(=O)N[C@H](C(=O)N[C@@H](CC(C)C)C(=O)N[C@@H](C)C(=O)N[C@@H](CC(=O)O)C(=O)N[C@@H](CCCCN)C(=O)N[C@@H](Cc1ccccc1)C(=O)N[C@@H](C)C(=O)N[C@@H](CC(N)=O)C(N)=O)C(C)C)C(C)C [GIGGALLSVGKLALKGLANVLADKFAN] | –
– | 4 (≈ 8.47 µg/mL) | 8 (≈ 16.9 µg/mL) | – | – | CC[C@H](C)[C@H](NC(=O)[C@H](CCCCN)NC(=O)[C@H](CCCCN)NC(=O)[C@@H](NC(=O)[C@@H](NC(=O)[C@H](CCCCN)NC(=O)[C@H](CCCCN)NC(=O)[C@@H](NC(=O)[C@@H](NC(=O)[C@H](CCCCN)NC(=O)[C@H](CCCCN)NC(=O)[C@@H](NC(=O)[C@@H](NC(=O)[C@H](CCCCN)NC(=O)[C@H](CCCCN)NC(=O)[C@@H](NC(=O)[C@@H](NC(=O)CN)[C@@H](C)CC)[C@@H](C)CC)[C@@H](C)CC)[C@@H](C)CC)[C@@H](C)CC)[C@@H](C)CC)[C@@H](C)CC)[C@@H](C)CC)C(N)=O [GIIKKIIKKIIKKIIKKI] | MIC [5]: 2 µM (≈ 4.24 µg/mL); MIC [6]: 2 µM (≈ 4.24 µg/mL); MIC [7]: 4 µM (≈ 8.47 µg/mL); MIC (Bacillus subtilis 168): 0.5 µM (≈ 1.06 µg/mL); MIC [8]: 4 µM (≈ 8.47 µg/mL); MIC [9]: 8 µM (≈ 16.9 µg/mL)
– | 45.3 (≈ 116 µg/mL) | 5.66 (≈ 14.5 µg/mL) | – | – | CC[C@H](C)[C@H](NC(=O)[C@H](C)NC(=O)[C@H](CCC(=O)O)NC(=O)[C@H](CC(C)C)NC(=O)CNC(=O)CNC(=O)[C@H](CCCCN)NC(=O)[C@H](C)NC(=O)[C@H](Cc1ccccc1)NC(=O)[C@H](CCCCN)NC(=O)[C@H](CCCCN)NC(=O)[C@H](CC(C)C)NC(=O)CNC(=O)CNC(=O)[C@H](CC(C)C)NC(=O)[C@@H](NC(=O)[C@@H](NC(=O)[C@H](CO)NC(=O)[C@H](Cc1c[nH]c2ccccc12)NC(=O)[C@@H](NC(=O)CN)C(C)C)[C@@H](C)O)C(C)C)C(=O)N[C@H](C(=O)N[C@@H](CC(N)=O)C(=O)N1CCC[C@H]1C(=O)N[C@@H](CCCCN)C(=O)O)C(C)C [GVWSTVLGGLKKFAKGGLEAIVNPK] | MIC (Saccharomyces cerevisiae): ≥ 32 µM; MIC [10]: ≥ 32 µM; MIC (Micrococcus luteus): 0.5 µM (≈ 1.29 µg/mL); MIC [11]: ≥ 100 µM
≥ 50.2 | > 50.2 | > 50.2 | ≥ 50.2 | – | CC[C@H](C)[C@H](N)C(=O)N[C@@H](CC(C)C)C(=O)NCC(=O)N1CCC[C@H]1C(=O)N[C@H](C(=O)N[C@H](C(=O)N[C@@H](CO)C(=O)N[C@H](C(=O)N[C@H](C(=O)NCC(=O)N[C@@H](CC(N)=O)C(=O)N[C@H](C(=O)N[C@@H](CC(C)C)C(=O)NCC(=O)NCC(=O)N[C@@H](CC(C)C)C(=O)N[C@@H](CC(C)C)C(=O)N[C@@H](CCCCN)C(=O)N[C@@H](CC(N)=O)C(=O)N[C@@H](CC(C)C)C(N)=O)C(C)C)[C@@H](C)CC)[C@@H](C)O)[C@@H](C)CC)C(C)C [ILGPVISTIGNVLGGLLKNL] | –
– | – | – | – | 12.4 (≈ 20 µg/mL) | CC[C@H](C)[C@H](N)C(=O)N[C@@H](CC(C)C)C(=O)N1CCC[C@H]1C(=O)N[C@@H](CC(C)C)C(=O)N[C@@H](CCCCN)C(=O)N[C@@H](CC(C)C)C(=O)N1CCC[C@H]1C(=O)N[C@@H](Cc1c[nH]c2ccccc12)C(=O)N[C@@H](CC(C)C)C(=O)N1CCC[C@H]1C(=O)N[C@@H](CC(C)C)C(=O)N[C@@H](CCCN=C(N)N)C(=O)N[C@@H](CCCN=C(N)N)C(N)=O [ILPLKLPWLPLRR] | MIC (Staphylococcus aureus): 6.19 µM (≈ 9.99 µg/mL)
≥ 52.1 | > 52.1 | > 52.1 | ≥ 52.1 | – | CC[C@H](C)[C@H](N)C(=O)N[C@@H](CO)C(=O)NCC(=O)N1CCC[C@H]1C(=O)N[C@H](C(=O)N[C@@H](CC(C)C)C(=O)NCC(=O)N[C@@H](CC(C)C)C(=O)N[C@H](C(=O)NCC(=O)N[C@@H](CC(N)=O)C(=O)N[C@@H](C)C(=O)N[C@@H](CC(C)C)C(=O)NCC(=O)NCC(=O)N[C@@H](CC(C)C)C(=O)N[C@H](C(=O)N[C@@H](CCCCN)C(=O)N[C@@H](CCCCN)C(=O)N[C@H](C(N)=O)[C@@H](C)CC)[C@@H](C)CC)C(C)C)C(C)C [ISGPVLGLVGNALGGLIKKI] | –
– | – | – | – | 31 (≈ 41.6 µg/mL) | CC[C@H](C)[C@H](NC(=O)[C@H](Cc1c[nH]c2ccccc12)NC(=O)[C@H](CCCCN)NC(=O)[C@H](CC(C)C)NC(=O)[C@H](Cc1ccccc1)NC(=O)[C@H](CCCCN)NC(=O)[C@H](CC(C)C)NC(=O)[C@H](CC(C)C)NC(=O)[C@H](CCCCN)NC(=O)[C@@H]1CCCN1)C(=O)NCC(=O)O [PKLLKFLKWIG] | MIC (Staphylococcus aureus): 8 µM (≈ 10.7 µg/mL)
– | – | – | – | – | CSCC[C@H](NC(=O)CNC(=O)[C@@H](NC(=O)[C@H](CO)NC(=O)[C@H](Cc1ccccc1)NC(=O)[C@@H](NC(=O)[C@H](Cc1ccccc1)NC(=O)[C@H](Cc1ccc(O)cc1)NC(=O)[C@H](CO)NC(=O)[C@H](CCC(=O)O)NC(=O)[C@@H](N)[C@@H](C)O)C(C)C)C(C)C)C(N)=O [TESYFVFSVGM] | MIC [12]: 17.7 µM (≈ 22.4 µg/mL); MIC [13]: 17.7 µM (≈ 22.4 µg/mL); MIC [14]: ≥ 50 µM; MIC [15]: ≥ 50 µM; MIC [16]: ≥ 50 µM; MIC [17]: ≥ 50 µM
